Measurements taken from ChEMBL document CHEMBL1148044, “Isorawsonol and related IMP dehydrogenase inhibitors from the tropical green alga Avrainvillea rawsonii” (J Nat Prod, 1994).

Assay: Inhibition of human recombinant IMPDH assessed as NADH formation by spectrophotometry; call rule not given here

Row | Compound | IC50 | IC50 (read-out: IC50) [µM]
1 | OCc1cc(O)c(O)c(Br)c1 | Not Active | 
2 | OCc1cc(Br)c(O)c(O)c1Cc1ccc(O)c(Br)c1 [AVRAINVILLEOL] |  | 18

Further lines, results first:

Row | IC50 | IC50 (read-out: IC50) [µM] | Compound
3 | Not Active |  | COCc1cc(Br)c(O)c(O)c1Cc1ccc(O)c(Br)c1 [AVRAINVILLEOL METHYL ETHER]
4 |  | 10 | COCc1cc(Br)c(O)c(O)c1Cc1cc(Br)c(O)c(Cc2cc(Br)c(O)c(O)c2Cc2ccc(O)c(Br)c2)c1 [RAWSONOL]
5 |  | 7.4 | OCc1c(Cc2ccc(O)c(Br)c2)c(O)c(O)c(Br)c1Cc1cc(Br)c(O)c(O)c1Cc1ccc(O)c(Br)c1 [ISORAWSONOL]
